# Test results from patent US11166942B2 (PRAXIS BIOTECH LLC, priority 2018, dated 2021).
# pIC50: −log10 of the molar value. Where two headings read alike, the source gives them in different places.
# Legend:
# [1] = tested on: hippocampal slices from transgenic APP/PS1 mice; experiment: Electrophysiology and long-term potentiation in hippocampal slices; conditions: slices from APP/PS1 mouse, 5 μM, 20 min before stimulation (FIGS. 5A, 5B)
# Protocol: Hippocampal slices were prepared as described in Ardiles et al., Pannexin 1 regulates bidirectional hippocampal synaptic plasticity in adult mice. Front Cell Neurosci, vol. 8, art. 326 (2014). Six to nine-month-old WT C57BL/6 or transgenic APP/PS1 mice (Jackson Lab 34829-JAX) were deeply anesthetized with isoflurane and their brains were quickly removed. 5-10 slices (350 μm) from each animal were dissected in ice-cold dissection buffer using a vibratome (Leica VT1200S, Leica Microsystems, Nussloch, Germany). Slices were incubated with 5 μM ISRIB (trans-N,N′-1,4-cyclohexanediylbis[2-(4-chlorophenoxy)-acetamide) or a vehicle (complete medium containing 0.1% DMSO) 20 min before conditioning stimulation. Synaptic responses were evoked by stimulating the Schaffer collaterals with 0.2 ms pulses delivered through concentric bipolar stimulating electrodes, and recorded extracellularly in the stratum radiatum of the CA1 subfield. Long-term potentiation (LTP) was induced by four-theta burst stimulation (TBS) (10 trains of four pulses at 100 Hz; 5 Hz inter-burst interval) delivered at 0.1 Hz. LTP magnitude based on field excitatory postsynaptic potential (fEPSP) was calculated as the average (normalized to baseline) of the responses recorded 60 min after conditioning stimulation. Similar experiments can be performed using a test compound in place of ISRIB.
# ATF4 = ATF4 expression inhibition assay (ATF4 5'UTR luciferase reporter, Tg-stressed HEK293T cells); format: cell-based, human; conditions: for pIC50: read-out: ATF4 inhbition IC50; for inhibition at 0.1 µM: read-out: % ATF4 inhibition at 100 nM; for inhibition at 1 µM: read-out: % ATF4 inhibition at 1 μM
# How it was run: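 HEK293T stably expressing luciferase fused downstream of human full-length ATF4 5′UTR, stressed with 100 nM thapsigargin plus compound (100 nM or 1 μM; IC50 series 0.1 nM to 1 μM) for 3 h at 37° C. Luminescence normalized to Tg alone (0%) and untreated cells (100% inhibition).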
# HEK293T cells = experiment: Recovery of protein translation in stressed HEK293T cells; format: cell-based, human
# Description: Despite the great potency on the inhibition of ATF4 expression, ISRIB is not able to completely restore protein synthesis when the global protein translation is decreased under these stress conditions. […] Compound 4 has a great potency for the inhibition of ATF4 expression under stress condition (FIG. 3) and is much better at restoring global protein translation under ER stress-mediated repression and going beyond a 100% recovery (FIG. 4).
# [2] = tested on: Chinese hamster ovary (CHO) cells; experiment: Protein translation assay (puromycin labelling, CHO cells); format: cell-based; conditions: media alone = 100%; for activity at 1 µM: Cricetulus griseus, CHO
# How it was run: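 CHO cells given compound 2 h at 1 μM (unstressed), or 1 h at 100 nM or 1 μM then co-treated with 300 nM Tg (stressed); 10 μg/ml puromycin pulse 30 min, anti-puromycin western blot with β-actin, densitometry. Normalized to media alone (100%) and, for stressed cells, Tg alone (0%).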
# [3] = 100 nM thapsigargin, 3 hours, HEK293T ATF4 luciferase reporter
# [4] = Homo sapiens, HEK-293T, 3 h, 100 nM test compound, 100 nM thapsigargin, 3 hours, HEK293T ATF4 luciferase reporter
# [5] = Homo sapiens, HEK-293T, 3 h, 100 nM thapsigargin, 3 hours, HEK293T ATF4 luciferase reporter
# [6] = Homo sapiens, HEK-293T, 3 h, 1 μM test compound, 100 nM thapsigargin, 3 hours, HEK293T ATF4 luciferase reporter
# [7] = 2 h, unstressed CHO cells, 1 μM, 2 hours, read-out: % Protein synthesis in unstressed cells (1 μM test compound)
# [8] = CHO cells stressed with 300 nM Tg, 1 μM compound, Tg alone = 0%, read-out: % Recovery of protein expression (1 μM test compound)
SMILES,inhibition at 0.1 µM (ATF4; [4]),inhibition at 1 µM (ATF4; [6]),"activity at 1 µM [2, 7]","activity at 1 µM [2, 8]","inhibition at 0.1 µM (ATF4; Homo sapiens, HEK-293T, 3 h)","inhibition at 1 µM (ATF4; Homo sapiens, HEK-293T, 3 h)","pIC50 (ATF4; Homo sapiens, HEK-293T, 3 h)",further results
"O=C(COc1ccc(Cl)cc1)N[C@H]1CC[C@H](NC(=O)COc2ccc(Cl)cc2)CC1 [ISRIB, reference compound]",,,,,,,,"long-term potentiation (LTP, fEPSP slope) 60 min after theta burst stimulation [1]: partial LTP recovery; pIC50 (ATF4; [3]): 8.30; restoration of protein translation in stressed cells (HEK293T cells; up to 200-fold its IC50 value (FIG. 2)): only partially restores protein translation"
"O=C(NN1CCN(C[C@@H](O)COc2ccc(Cl)c(F)c2)CC1)c1cc2cc(Cl)ccc2o1 [Compound 48, (R)-5-chloro-N-(4-(3-(4-chloro-3-fluorophenoxy)-2-hydroxypropyl)piperazin-1-yl)benzofuran-2-carboxamide]",96.5%,97.4%,85.3%,76.2%,,,,pIC50 (ATF4; [5]): 8.47
"O=C(COc1ccc(Cl)c(F)c1)NC1CCN(NC(=O)COc2ccc(Cl)c(F)c2)CC1 [Compound 4, N,N′-(piperidine-1,4-diyl)bis(2-(4-chloro-3-fluorophenoxy)acetamide)]",93.2%,94.7%,105%,169%,,,,"pIC50 (ATF4; [5]): 8.51; % Recovery of protein expression (100 nM test compound) ([2]; CHO cells stressed with 300 nM Tg, 100 nM compound, Tg alone = 0%): 83.5%; percent recovery of protein translation in stressed cells (HEK293T cells; 1 μM (FIG. 4)): > 100%"
"O=C(COc1ccc(Cl)c(F)c1)NN1CCC(NC[C@H](O)COc2ccc(Cl)c(F)c2)CC1 [Compound 53, (S)-2-(4-chloro-3-fluorophenoxy)-N-(4-((3-(4-chloro-3-fluorophenoxy)-2-hydroxypropyl)amino)piperidin-1-yl)acetamide]",36.1%,69.8%,83.7%,46.2%,,,,pIC50 (ATF4; [5]): 6.57
"O=C(COc1ccc(Cl)c(F)c1)NN1CCC(NCCOc2ccc(Cl)c(F)c2)CC1 [Compound 22, 2-(4-chloro-3-fluorophenoxy)-N-(4-((2-(4-chloro-3-fluorophenoxy)ethyl)amino)piperidin-1-yl)acetamide]",,,94.8%,105%,87.5%,92.8%,7.99,
"O=C(NN1CCC(NCC(O)COc2ccc(Cl)c(F)c2)CC1)c1cc2cc(Cl)ccc2o1 (stereo not drawn) [Compound 21, 5-chloro-N-(4-((3-(4-chloro-3-fluorophenoxy)-2-hydroxypropyl)amino)piperidin-1-yl)benzofuran-2-carboxamide]",,,129%,236%,68.6%,86.9%,7.21,
"O=C(NN1CCN(CCCOc2ccc(Cl)c(F)c2)CC1)c1cc2cc(Cl)ccc2o1 [Compound 18, 5-chloro-N-(4-(3-(4-chloro-3-fluorophenoxy)propyl)piperazin-1-yl) benzofuran-2-carboxamide]",,,89.3%,143%,59.1%,94.6%,7.12,
"O=C(COc1ccc(Cl)c(F)c1)NN1CCN(C(=O)COc2ccc(Cl)c(F)c2)CC1 [Compound 30, 2-(4-chloro-3-fluorophenoxy)-N-(4-(2-(4-chloro-3-fluorophenoxy)acetyl)piperazin-1-yl)acetamide]",,,49.3%,31.7%,29.5%,97.1%,6.73,
"O=C(COc1ccc(Cl)cc1)NC1CCN(NC(=O)COc2ccc(Cl)cc2)CC1 [Compound 45, N,N′-(piperidine-1,4-diyl)bis(2-(4-chlorophenoxy)acetamide)]",,,114%,82.3%,92.7%,92.4%,8.59,
"O=C(NN1CCC(NC[C@@H](O)COc2ccc(Cl)c(F)c2)CC1)c1ccc(Cl)cn1 [Compound 68, (R)-5-chloro-N-(4-((3-(4-chloro-3-fluorophenoxy)-2-hydroxypropyl)amino)piperidin-1-yl)picolinamide]",9%,50.9%,81.8%,49.3%,,,,
"O=C(COc1ccc(Cl)c(F)c1)NN1CCN(CCCOc2ccc(Cl)c(F)c2)CC1 [Compound 16, 2-(4-chloro-3-fluorophenoxy)-N-(4-(3-(4-chloro-3-fluorophenoxy)propyl)piperazin-1-yl)acetamide]",,,66.1%,-5.5%,46.3%,91.6%,6.90,
"O=C(NN1CCN(CC(O)COc2ccc(Cl)c(F)c2)CC1)c1ccc2cc(Cl)ccc2c1 (stereo not drawn) [Compound 14, 6-chloro-N-(4-(3-(4-chloro-3-fluorophenoxy)-2-hydroxypropyl)piperazin-1-yl)-2-naphthamide]",,,139%,175%,89.3%,98.9%,7.99,
"O=C(COc1ccc(Cl)c(F)c1)NC1CCN(NC(=O)[C@@H]2CNc3cc(Cl)ccc3O2)CC1 [Compound 47, (S)-6-chloro-N-(4-(2-(4-chloro-3-fluorophenoxy)acetamido)piperidin-1-yl)-3,4-dihydro-2H-benzo[b][1,4]oxazine-2-carboxamide]",,,,,,,,"% ATF4 inhibition at 100 nM (ATF4; 100 nM test compound, 100 nM thapsigargin, 3 hours, HEK293T ATF4 luciferase reporter): 98.2%; pIC50 (ATF4; [3]): 8.70; % ATF4 inhibition at 1 μM (ATF4; 1 μM test compound, 100 nM thapsigargin, 3 hours, HEK293T ATF4 luciferase reporter): 99.0%; % Protein synthesis in unstressed cells (1 μM test compound) ([2]; unstressed CHO cells, 1 μM, 2 hours): 89.4%"
